Values quoted from earlier work as cited in patent US20210186870A1, “IMPROVED CANNABINOID BIOAVAILABILITY” (EMERALD HEALTH TH[…] INC., priority 2018, published 2021).
Read-outs that look alike come from different tables or passages of the source.

CCCCCc1cc(O)c2c(c1)OC(C)(C)[C@@H]1CCC(C)=C[C@@H]21 [THC, tetrahydrocannabinol]
bioavailability of THC (from inhaled cannabis smoke): 2-56%
bioavailability of THC (orally consumed cannabis): 4-20%
